A short description of experiment [1]: Dd2 malaria parasite growth inhibition potency – SYBR Green, dry powder samples, dose response (AID 1159566).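 Also: potency for growth inhibition with lower SYBR green DNA signal.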 The format is functional, cell-based.
Experiment [2] is described as follows: P. falciparum Dd2 growth inhibitors, dose response, SYBR Green, cherry-picked samples (AID 1159567). The format is functional, cell-based.
Experiment [3] in a line: growth inhibition of yeast DHODH-expressing 3D7 parasites – SYBR Green, dry powder samples, dose response (AID 1159570).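 Also: parasite growth measured after 72 hours of compound exposure.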 It counts as functional, cell-based.
Experiment [4] in a line: growth inhibition of PfATP4-mutant resistant parasites – NITD609-resistant line, SYBR Green, dry powder, dose response (AID 1159571).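 Also: parasites synchronized at ring stage by sorbitol before testing.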 It counts as functional, cell-based.
Experiment [5] can be described thus: toxicity to human HepG2 hepatoma cells – cell-based, plate reader, dry powder samples, cytotoxicity control, dose response (AID 1159569).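 Also: inhibitor potency with signal falling toward the positive control level.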 It counts as functional.
The nature of experiment [6]: HPDE-C7 pancreatic duct cell viability loss – fluorescence, HTS (AID 430). The format is functional, cell-based. To be noted: Homo sapiens.
The nature of experiment [7]: viability loss of HPDE-C7K cells – cell-based, fluorescence, HTS, primary screen (AID 431). The format is functional. The following applies: Homo sapiens.
The target in experiment [8] is T1, Long-chain-fatty-acid--AMP ligase FadD28 (Mycobacterium tuberculosis, UniProt P9WQ59).
T1 sequence (P9WQ59 whole entry): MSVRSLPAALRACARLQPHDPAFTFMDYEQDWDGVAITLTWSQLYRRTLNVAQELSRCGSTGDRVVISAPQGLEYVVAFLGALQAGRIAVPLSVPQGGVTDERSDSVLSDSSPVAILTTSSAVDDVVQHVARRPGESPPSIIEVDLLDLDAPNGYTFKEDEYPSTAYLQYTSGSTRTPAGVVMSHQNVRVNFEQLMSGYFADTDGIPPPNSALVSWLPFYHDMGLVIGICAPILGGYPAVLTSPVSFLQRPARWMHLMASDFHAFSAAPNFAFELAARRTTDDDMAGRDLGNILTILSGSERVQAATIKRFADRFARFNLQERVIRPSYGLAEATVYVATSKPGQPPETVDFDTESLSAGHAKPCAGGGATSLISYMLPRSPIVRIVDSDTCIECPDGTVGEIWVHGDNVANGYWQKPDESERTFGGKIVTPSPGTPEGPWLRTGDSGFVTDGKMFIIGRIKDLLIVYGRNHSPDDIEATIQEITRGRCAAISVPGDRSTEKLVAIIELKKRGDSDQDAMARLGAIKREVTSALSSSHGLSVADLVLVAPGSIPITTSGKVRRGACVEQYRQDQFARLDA
Nature of the experiment: Fluorescence polarization aasay to screen for inhibitors that compete for the binding of FadD28 to a bisubstrate Measured in Biochemical System Using Plate Reader - 2147-01_Inhibitor_Dose_CherryPick_Activity. It counts as functional, Mycobacterium tuberculosis H37Rv.

For another experiment, the target named is T2, Protein skinhead-1 (Caenorhabditis elegans, UniProt P34707).
T2 sequence (P34707 whole entry): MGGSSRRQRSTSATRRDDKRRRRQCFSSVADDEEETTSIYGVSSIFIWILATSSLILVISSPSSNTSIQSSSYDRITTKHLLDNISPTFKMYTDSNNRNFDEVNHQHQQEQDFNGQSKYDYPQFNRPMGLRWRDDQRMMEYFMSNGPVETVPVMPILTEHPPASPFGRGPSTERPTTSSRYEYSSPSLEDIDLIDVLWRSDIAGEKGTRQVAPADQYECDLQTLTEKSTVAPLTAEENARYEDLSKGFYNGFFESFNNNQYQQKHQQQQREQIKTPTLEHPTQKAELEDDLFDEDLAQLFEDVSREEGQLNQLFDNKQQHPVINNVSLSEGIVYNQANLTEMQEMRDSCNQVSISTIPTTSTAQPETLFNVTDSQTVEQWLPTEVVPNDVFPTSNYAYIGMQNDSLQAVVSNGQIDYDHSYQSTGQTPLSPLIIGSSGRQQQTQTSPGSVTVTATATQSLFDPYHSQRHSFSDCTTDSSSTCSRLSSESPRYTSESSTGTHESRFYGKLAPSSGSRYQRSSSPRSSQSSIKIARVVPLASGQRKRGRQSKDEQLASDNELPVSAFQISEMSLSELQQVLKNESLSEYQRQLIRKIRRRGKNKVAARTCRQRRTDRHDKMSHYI
It counts as functional.

For a further experiment, the target named is Paired box protein Pax-8 (Homo sapiens, UniProt Q06710). Nature of the experiment: PAX8 transcriptional activity inhibition in RMG-I – RMG-I cells, luciferase, cherry-pick, dose response (AID 687027).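 Also: luciferase reporter driven by Pax8 target thyroperoxidase promoter measured by SteadyGlo luminescence.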 It counts as functional, cell-based.
The nature of experiment [9]: OVCAR-3 cell viability loss – plate reader, dry powder samples, PAX8 inhibitor project, dose response (AID 743044). It counts as functional, cell-based.
For experiment [10], the target named is T3, Corticotropin-releasing factor receptor 2/Corticotropin-releasing factor-binding protein (Homo sapiens, UniProt P24387+Q13324).
T3 sequence (Q13324 whole entry): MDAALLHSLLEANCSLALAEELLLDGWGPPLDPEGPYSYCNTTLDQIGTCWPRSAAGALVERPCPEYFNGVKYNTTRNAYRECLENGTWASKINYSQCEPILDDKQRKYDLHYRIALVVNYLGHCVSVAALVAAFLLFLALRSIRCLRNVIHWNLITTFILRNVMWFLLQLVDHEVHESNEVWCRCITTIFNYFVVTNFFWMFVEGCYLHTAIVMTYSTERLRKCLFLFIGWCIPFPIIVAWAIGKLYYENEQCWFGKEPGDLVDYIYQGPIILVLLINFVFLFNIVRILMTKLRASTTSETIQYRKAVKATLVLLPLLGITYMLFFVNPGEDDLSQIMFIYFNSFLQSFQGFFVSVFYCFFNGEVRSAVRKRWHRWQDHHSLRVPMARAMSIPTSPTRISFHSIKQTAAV
T3 sequence (P24387 whole entry): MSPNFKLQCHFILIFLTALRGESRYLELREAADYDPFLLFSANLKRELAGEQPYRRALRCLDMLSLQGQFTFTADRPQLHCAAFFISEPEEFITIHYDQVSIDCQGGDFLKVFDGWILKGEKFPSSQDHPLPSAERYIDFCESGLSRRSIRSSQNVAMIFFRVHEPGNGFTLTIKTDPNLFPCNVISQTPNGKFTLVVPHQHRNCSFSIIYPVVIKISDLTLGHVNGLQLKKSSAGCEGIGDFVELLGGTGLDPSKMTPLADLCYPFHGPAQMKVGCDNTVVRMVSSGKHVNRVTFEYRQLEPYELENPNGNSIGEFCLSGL
The experiment is described as follows: Dose Response confirmation of uHTS hits for small molecule antagonists of the CRF-binding protein and CRF-R2 receptor complex. It counts as functional. To be noted: read-out: IC50_Mean.

Experiment [11] can be described thus: blockers of CRF-binding protein–CRF-R2 complex – cell-based, uHTS hits, 384-well, dose response (AID 651639). It counts as functional, Homo sapiens. To be noted: read-out: IC50_Mean.
In experiment [12] the target is T3, Corticotropin-releasing factor receptor 2/Corticotropin-releasing factor-binding protein. The experiment is described as follows: activators of CRF receptor 2 with binding protein – uHTS hits, confirmation (AID 602473). It counts as functional. The following applies: read-out: EC50_Mean.
For experiment [13], the system named is Streptococcus sp. 'group A'. The experiment is described as follows: Streptococcus pyogenes SK(-)GAS viability under kanamycin – luminescence, BacTiterGlo, confirmation, counter-screen for streptokinase expression inhibitor project, dose response (AID 1900). The format is functional, organism-based. Background: Counterscreens check selectivity or assay interference.

The next experiment has as its target T4, Streptokinase A (Streptococcus pyogenes serotype M1, UniProt P10520).
T4 sequence (P10520 whole entry): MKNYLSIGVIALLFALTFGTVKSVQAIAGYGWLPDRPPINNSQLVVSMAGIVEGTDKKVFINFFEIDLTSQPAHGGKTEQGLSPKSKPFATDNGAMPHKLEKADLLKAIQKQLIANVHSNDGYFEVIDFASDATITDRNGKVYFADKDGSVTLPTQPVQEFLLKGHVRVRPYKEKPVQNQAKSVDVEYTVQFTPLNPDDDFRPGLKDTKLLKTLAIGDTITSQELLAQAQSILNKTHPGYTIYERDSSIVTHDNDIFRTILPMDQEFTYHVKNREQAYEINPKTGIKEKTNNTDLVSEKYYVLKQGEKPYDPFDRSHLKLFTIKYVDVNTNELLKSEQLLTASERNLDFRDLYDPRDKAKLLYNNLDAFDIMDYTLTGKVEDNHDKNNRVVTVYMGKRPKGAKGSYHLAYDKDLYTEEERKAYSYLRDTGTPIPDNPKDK
The experiment is described as follows: viability-normalized secreted streptokinase activity reduction – plasminogen activation absorbance, OD405, dose response (AID 1914).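 Also: secreted streptokinase activity via plasminogen activation per viability signal from cell pellet.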 The format is functional, Streptococcus pyogenes M1 GAS.

A further experiment has as its system Streptococcus. The experiment is described as follows: GAS UMAA2166 growth inhibition – luminescence, BacTiterGlo, counter-screen for streptokinase expression inhibitor project, dose response (AID 1915).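 Also: potency for reduction of bacterial viability or growth.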 The format is functional, organism-based.

16 molecules from ChEMBL document CHEMBL1201862, “PubChem BioAssay data set” (2004) can be followed below.

Active and inactive are the calls of the source.

Paired box protein Pax-8, sequence (Q06710 whole entry): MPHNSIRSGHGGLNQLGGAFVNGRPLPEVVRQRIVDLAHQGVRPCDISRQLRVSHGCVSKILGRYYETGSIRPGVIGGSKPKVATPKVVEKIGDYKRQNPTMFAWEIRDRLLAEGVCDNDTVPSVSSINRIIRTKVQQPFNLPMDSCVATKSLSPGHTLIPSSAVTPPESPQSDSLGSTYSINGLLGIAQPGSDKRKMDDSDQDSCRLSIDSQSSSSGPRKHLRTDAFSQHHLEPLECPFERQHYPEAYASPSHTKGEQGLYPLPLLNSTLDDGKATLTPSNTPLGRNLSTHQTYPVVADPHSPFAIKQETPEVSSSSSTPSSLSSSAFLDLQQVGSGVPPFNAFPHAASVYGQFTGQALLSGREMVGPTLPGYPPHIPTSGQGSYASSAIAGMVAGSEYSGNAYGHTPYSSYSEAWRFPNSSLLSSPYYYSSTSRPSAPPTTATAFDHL

In general, AC50 refers to the midpoint of the concentration-response curve, whichever way the signal moves. As to `C[C@H](CO)N1C[C@H](C)[C@@H](CN(C)C(=O)C2CCCCC2)Oc2ncc(/C=C/c3ccccc3)cc2C1=O`, the AC50 in [1] was 0.35 µM (active); in [2] it was 0.658 µM (active); in [3] it was 0.608 µM (active); in experiment [4] it was 0.451 µM (active); in experiment [5] it was 50.2 µM (active).

Take `Cc1cc(NCc2ccccc2)nc(-c2ccccc2O)n1`: the figures for the EC50 in experiment [6] and in [7] were 19.2 µM (active) and 10.3 µM (active), respectively.

On to `COc1ccc(C#Cc2ccc3c(c2)[C@H]2[C@H](CCN2Cc2ccncc2)[C@H](CO)N3)cc1`, for which the AC50 in experiment [1] was 0.922 µM (active); in [2], 1.19 µM (active); in experiment [3] it was 1.18 µM (active); in experiment [4], 1.11 µM (active); in experiment [5] it was 65.7 µM (active).

Turning to `CC(C)c1ccc(NC(=O)C(=O)C2C(=O)Nc3ccccc32)cc1` (stereo unspecified), the AC50 in [8] was 98.2 µM (active).

Turning to `CN(CC(=O)NCCc1ccccc1)S(=O)(=O)c1ccc(Br)s1`, the IC50 at Protein skinhead-1 was > 100 µM (inactive).

On to `Cc1ccc(-c2ccnc3nc(Sc4ncc(C(F)(F)F)cc4Cl)nn23)cc1`, for which the IC50 at Protein skinhead-1 is > 100 µM (inactive).

As to `COc1cccc(-c2nc(NCc3ccco3)c3ccccc3n2)c1O`, the results for the EC50 in experiment [6] and in [7] were > 20 µM (not active) and 1.11 µM (active), respectively.

Regarding `C[C@@H]1CCCCO[C@@H](CN(C)Cc2ccc(Cl)c(Cl)c2)[C@H](C)CN([C@@H](C)CO)C(=O)c2cc(NC(=O)Nc3ccc(C(F)(F)F)cc3)ccc2O1`, the half-maximal activity concentration (AC50) on Paired box protein Pax-8 is 5.08 µM (active); in experiment [9] it was 29.6 µM (active).

Take `C[C@H]1CN([C@@H](C)CO)C(=O)c2c(c3ccccc3n2C)-c2ccccc2CO[C@H]1CN(C)C(=O)c1cc(Cl)cc(Cl)c1`: the AC50 in experiment [1] is 1.48 µM (active); in [2] it was 2.14 µM (active); in experiment [3], 2.36 µM (active); in experiment [4], 1.58 µM (active); in [5], 27.8 µM (active).

As for `O=C(c1cccc(S(=O)(=O)N2CCOCC2)c1)N(Cc1ccc(F)cc1)Cc1ccco1`, the IC50 is 10.6 µM (active) in experiment [10] and > 20 µM (inactive) in experiment [11]. Also, the EC50 in experiment [12] was > 53 µM (inactive).

Take `Oc1ccc(Br)cc1/C=N/n1c(S)nnc1C1CCCCC1`: in [8], the AC50 was 8.32 µM (active).

Consider `COc1cccc(NC(=O)CN2CCc3ccccc3C2)c1`, for which, on Protein skinhead-1, the IC50 was > 100 µM (inactive).

For `COc1ccc(-c2c(C(F)(F)F)nn3c(O)cc(-c4ccccc4)nc23)cc1`, the EC50 in experiment [13] is 8.01 µM (active); at Streptokinase A, > 150 µM (not active); in [12], > 53 µM (inactive); in the experiment with Streptococcus, 11.6 µM (active). Further, the IC50 in experiment [10] is 4.6 µM (active); in [11], 15.7 µM (active).

On to `O=C(O)c1cnc2ccccc2n1`, for which the IC50 at Protein skinhead-1 is > 100 µM (inactive).

On to `Cc1nc2cc(C(=O)NCc3ccc4c(c3)OCO4)ccc2n1-c1ccc(Br)cc1`, for which the IC50 is < 0.368 µM (active) in experiment [10] and > 20 µM (inactive) in [11]. Further, the EC50 in experiment [12] was > 53 µM (inactive).

For the molecule `C[C@@H]1CCCCO[C@@H](CN(C)S(=O)(=O)c2ccc(Cl)cc2)[C@H](C)CN([C@@H](C)CO)C(=O)c2cc(N(C)C)ccc2O1`, the AC50 is 3.28 µM (active) at Paired box protein Pax-8 and 28.3 µM (active) in experiment [9].
